Measured values taken from ChEMBL document CHEMBL3044994, “Synthesis and evaluation of novel carbamate-substituted flavanone derivatives as potent acetylcholinesterase inhibitors and anti-amnestic agents” (Med Chem Res, 2013).
The source made the active and inactive calls. The rule behind the calls is not given here.

What was measured:
Mus musculus [1] = test: (§1) Antiamnestic activity in scopolamine-induced Swiss albino Mus musculus (mouse) memory deficit model assessed as increase in time spent in target quadrant at 25 mg/kg, ip administered 30 min prior to scopolamine challenge measured on day 5 by Morris water maze test relative to vehicle-treated control; format: functional, organism-based; design: dose 25 mg/kg
Acetylcholinesterase = target: T1, Acetylcholinesterase (Rattus norvegicus, UniProt P37136); test: Inhibition of AchE in Rattus norvegicus (rat) cortex homogenates by Ellman's method
T1 sequence (P37136 whole entry): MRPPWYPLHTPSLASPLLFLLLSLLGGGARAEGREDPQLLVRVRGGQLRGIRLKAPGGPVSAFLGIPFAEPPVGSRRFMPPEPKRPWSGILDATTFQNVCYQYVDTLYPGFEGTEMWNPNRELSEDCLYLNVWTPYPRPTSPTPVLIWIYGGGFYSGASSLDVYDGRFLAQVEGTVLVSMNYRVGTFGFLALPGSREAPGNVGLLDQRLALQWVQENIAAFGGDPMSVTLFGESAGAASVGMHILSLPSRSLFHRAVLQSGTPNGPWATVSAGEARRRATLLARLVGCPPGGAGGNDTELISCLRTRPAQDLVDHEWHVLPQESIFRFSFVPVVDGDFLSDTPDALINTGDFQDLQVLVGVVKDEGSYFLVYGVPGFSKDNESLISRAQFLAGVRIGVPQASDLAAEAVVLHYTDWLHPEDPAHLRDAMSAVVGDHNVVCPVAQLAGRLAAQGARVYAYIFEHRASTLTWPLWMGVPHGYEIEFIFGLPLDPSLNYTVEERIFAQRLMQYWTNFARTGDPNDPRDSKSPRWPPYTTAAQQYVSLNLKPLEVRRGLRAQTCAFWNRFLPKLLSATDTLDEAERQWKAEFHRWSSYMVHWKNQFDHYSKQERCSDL

Mus musculus [2] = test: as §1, with “2 to 10” for “25”; format: functional, organism-based
Mus musculus [3] = test: Antiamnestic activity in scopolamine-induced Swiss albino Mus musculus (mouse) memory deficit model assessed as escape latency time at 10 mg/kg, ip administered 30 min prior to scopolamine challenge measured on day 4 by Morris water maze test (reference value: 78.7 +/- 5.7 secs); format: functional; details: route intraperitoneal
Mus musculus [4] = test: Antiamnestic activity in scopolamine-induced Swiss albino Mus musculus (mouse) memory deficit model assessed as escape latency time at 5 mg/kg, ip administered 30 min prior to scopolamine challenge measured on day 4 by Morris water maze test (reference value: 78.7 +/- 5.7 secs); format: functional; details: route intraperitoneal
Mus musculus [5] = test: Antiamnestic activity in scopolamine-induced Swiss albino Mus musculus (mouse) memory deficit model assessed as escape latency time at 2 mg/kg, ip administered 30 min prior to scopolamine challenge measured on day 4 by Morris water maze test (reference value: 78.7 +/- 5.7 secs); format: functional; details: route intraperitoneal
Mus musculus [6] = test: Antiamnestic activity in scopolamine-induced Swiss albino Mus musculus (mouse) memory deficit model assessed as escape latency time at 10 mg/kg, ip administered 30 min prior to scopolamine challenge measured on day 1 by Morris water maze test (reference value: 89.7 +/- 3.8 secs); format: functional; details: route intraperitoneal
Mus musculus [7] = test: Antiamnestic activity in scopolamine-induced Swiss albino Mus musculus (mouse) memory deficit model assessed as escape latency time at 2 mg/kg, ip administered 30 min prior to scopolamine challenge measured on day 1 by Morris water maze test (reference value: 89.7 +/- 3.8 secs); format: functional; details: route intraperitoneal
Mus musculus [8] = test: Antiamnestic activity in scopolamine-induced Swiss albino Mus musculus (mouse) memory deficit model assessed as escape latency time at 5 mg/kg, ip administered 30 min prior to scopolamine challenge measured on day 1 by Morris water maze test (reference value: 89.7 +/- 3.8 secs); format: functional; details: route intraperitoneal

| Compound | IC50 (Acetylcholinesterase) [nM] | also measured |
| --- | --- | --- |
| COc1cc2c(cc1OC)C(=O)C(CC1CCN(Cc3ccccc3)CC1)C2 (stereo unspecified) | – | Activity (Mus musculus [1]): Active |
| O=C(Nc1ccccc1)Oc1ccccc1C1CC(=O)c2ccccc2O1 (stereo unspecified) | 39.9 | – |
| COc1cc(C2CC(=O)c3ccccc3O2)cc([N+](=O)[O-])c1OC(=O)Nc1ccccc1 (stereo unspecified) | 30.5 | – |
| O=C(Nc1ccccc1)Oc1cccc(C2CC(=O)c3ccccc3O2)c1 (stereo unspecified) | 38.8 | – |
| COc1cc(OC)c2c(c1)OC(c1cc(OC)c(OC(=O)Nc3ccccc3)c(OC)c1)CC2=O (stereo unspecified) | 9.9 | Activity (Mus musculus [2]): Active; Time (Mus musculus [3]): 45.4 s; Time (Mus musculus [4]): 66.4 s; Time (Mus musculus [5]): 72.1 s; Time (Mus musculus [6]): 83.1 s; Time (Mus musculus [7]): 84.3 s; Time (Mus musculus [8]): 87.5 s |
| COc1cc(C2CC(=O)c3ccccc3O2)cc([N+](=O)[O-])c1O (stereo unspecified) | 144 | – |
| COc1cc(OC)c2c(c1)OC(c1cc(OC)c(O)c([N+](=O)[O-])c1)CC2=O (stereo unspecified) | 116 | – |
| O=C1CC(c2ccccc2O)Oc2ccccc21 (stereo unspecified) [2'-HYDROXY-FLAVANONE] | 149 | – |
| COc1cc(OO)cc2c1C(=O)CC(c1ccccc1OC(=O)Nc1ccccc1)O2 (stereo unspecified) | 21.5 | – |
| COc1cc(OC)c2c(c1)OC(c1cc(OC)c(O)c(OC)c1)CC2=O (stereo unspecified) | 107 | – |
| O=C1CC(c2ccc(O)cc2)Oc2ccccc21 (stereo unspecified) [4'-HYDROXY-FLAVANONE] | 145 | – |
| COc1ccc(C2CC(=O)c3ccccc3O2)cc1O (stereo unspecified) | 140 | – |
| COc1ccc(C2CC(=O)c3ccccc3O2)cc1OC(=O)Nc1ccccc1 (stereo unspecified) | 27.6 | – |
| COc1cc(OC)c2c(c1)OC(c1cccc(O)c1)CC2=O (stereo unspecified) | 119 | – |
| O=C1CC(c2cccc(O)c2)Oc2ccccc21 (stereo unspecified) [3'-HYDROXYFLAVANONE] | 147 | – |
| COc1cc(C2CC(=O)c3ccccc3O2)cc(OC)c1OC(=O)Nc1ccccc1 (stereo unspecified) | 19.3 | – |
| COc1cc(C2CC(=O)c3ccccc3O2)ccc1OC(=O)Nc1ccccc1 (stereo unspecified) | 21.9 | – |
| COc1cc(OC)c2c(c1)OC(c1ccc(O)cc1)CC2=O (stereo unspecified) | 118 | – |
| O=C(Nc1ccccc1)Oc1ccc(C2CC(=O)c3ccccc3O2)cc1 (stereo unspecified) | 36.7 | – |
| COc1cc(C2CC(=O)c3ccccc3O2)cc(OC)c1O (stereo unspecified) | 131 | – |
| COc1cc(OC)c2c(c1)OC(c1ccc(OC)c(OC(=O)Nc3ccccc3)c1)CC2=O (stereo unspecified) | 16.3 | – |
| COc1cc(C2CC(=O)c3ccccc3O2)ccc1O (stereo unspecified) | 138 | – |
| COc1cc(OC)c2c(c1)OC(c1ccccc1O)CC2=O (stereo unspecified) | 120 | – |
| COc1cc(OC)c2c(c1)OC(c1cc(OC)c(OC(=O)Nc3ccccc3)c([N+](=O)[O-])c1)CC2=O (stereo unspecified) | 18.2 | – |
| COc1cc(OC)c2c(c1)OC(c1ccc(O)c(OC)c1)CC2=O (stereo unspecified) | 112 | – |
| COc1cc(OC)c2c(c1)OC(c1ccc(OC(=O)Nc3ccccc3)cc1)CC2=O (stereo unspecified) | 18.8 | – |
| COc1cc(OC)c2c(c1)OC(c1ccc(OC(=O)Nc3ccccc3)c(OC)c1)CC2=O (stereo unspecified) | 12.8 | – |
| COc1cc(OC)c2c(c1)OC(c1cccc(OC(=O)Nc3ccccc3)c1)CC2=O (stereo unspecified) | 19.6 | – |
| COc1cc(OC)c2c(c1)OC(c1ccc(OC)c(O)c1)CC2=O (stereo unspecified) | 114 | – |
